Measurements as given in patent US20250127755A1, “PHARMACOLOGICAL DEPLETION OF HEME FOR THE TREATMENT OF MYELODYSPLASTIC SYNDROME” (THE SCRIPPS RESEARCH INSTITUTE, priority 2021, published 2025).
Blank lines part the entries; values can stand above or below the molecule they belong to.

Assays:
MDS-L cells [1] = assay: MDS-L differentiation assay (GlyA positivity, 384-well FACS-based); settings: for Maximal MDS-LGlyA fold induction: human; for EC50: read-out: MDS-L GlyA induction EC50; for inducing differentiation to more terminal blood lineages (GlyA immunopositivity): 384-well FACS-based assay
Procedure: MDS-L differentiation assay. Given a limited number of patient samples and the low yield from each biopsy, it is not tractable to conduct high-throughput screens with primary cells.
To establish a screening assay, we selected known differentiation inducers of acute myeloid leukemia cells including retinoic acid (ATRA), Brequinar, and phorbol 12-myristate 13-acetate (PMA).
MDS-L were cultured in RPMI (17-105-CV, Corning) without phenol red and supplemented with 2 mM glutamine and 10% FBS. Cells first expanded in IL-3 until 70% confluence then pre-conditioned for 14 days with IL-3 (200-03, PeproTech), GCSF (300-23, PeproTech), and EPO (287-TC, R&D Systems) to promote erythroid and myeloid differentiation. A density of 10000 cells per well were used in phenotypic assays. MDSL cells were spun and treatment media was replaced with media containing APC Anti-CD235a (GlyA) (551336. BD Biosciences) (1.25 μL per 50 μL test) and incubated for 1 hour at 4° C. Cells were washed then counter stained with SYTOX-Green 1 μM per 100 μL prior to flow cytometry, analysis. Dose response and pharmacological assays were analyzed using a ZE5 Cell Analyzer (BioRad) equipped with Everest software. Single, live, cells were analyzed for GlyA expression using FlowJo v10.7.2 software.

MDS-L cells [2] = assay: CFU assays of MDS-L cells; type: cell-based
MDS-L cells [3] = assay: Loss of CD71; type: cell-based
MDS-L cells [4] = assay: Induction of apoptosis; type: cell-based; settings: below 20 μM
MDS-L cells [5] = assay: Heme levels of MDS-L cells; type: cell-based; settings: over relevant time periods, FIG. 4B
Procedure: FIG. 4A-FIG. 4C. Heme depletion induces terminal differentiation of MDS-L cells. A: Relative induction of GlyA positive MDS-L cells in response to treatment for 96 hours with the indicated concentrations of NMPP. B: Heme levels of MDS-L cells treated with the indicated compounds. C: Relative induction of GlyA positive cells after 96-hour treatment with artemisone and hemin.
An additional consequence of this mechanism is the alkylation of artemisinin to heme, resulting in its functional inactivation. Because we found no other reactive oxygen species (ROS)-inducers or alkylators as active hits from the screen, we reasoned that heme depletion is a way in which artemisinins promote differentiation of this cellular population.

Molecule: CC1=C(/C=C/C(C)=C/C=C/C(C)=C/C(=O)O)C(C)(C)CCC1 [ATRA, retinoic acid]
- cytotoxicity as readout by live dead cell gating (MDS-L cells [1]; MDS-L cells, FIG. 2): minimal cytotoxicity

- Maximal MDS-LGlyA fold induction (MDS-L cells [1]): 3.71 fold
- EC50 (MDS-L cells [1]): 5650 nM
Molecule: c1cc([C@H]2CC[C@]3(CC2)OOC2(O3)[C@@H]3C[C@H]4C[C@H](C[C@@H]2C4)C3)ccc1OCCN1CCOCC1 (stereo partly drawn) [Artefenomel (OZ-439), Artefenomel]

- Maximal MDS-LGlyA fold induction (MDS-L cells [1]): 3.82 fold
- EC50 (MDS-L cells [1]): 580 nM
Molecule: CCO[C@H]1O[C@@H]2O[C@@]3(C)CC[C@H]4[C@H](C)CC[C@@H]([C@H]1C)[C@@]24OO3 [Arteether]
- number of BFU-E, CFU-GM and CFU-GEMM type colonies (MDS-L cells [2]): decreasing
- terminal differentiation of MDS-L cells to CFU-Es (MDS-L cells [2]): efficaciously induced
- loss of CD71 (MDS-L cells [3]): efficaciously promoted
- induction in apoptosis (MDS-L cells [4]): no significant induction

- Maximal MDS-LGlyA fold induction (MDS-L cells [1]): 6.84 fold
- EC50 (MDS-L cells [1]): 150 nM
Molecule: C[C@H]1[C@H](N2CCS(=O)(=O)CC2)O[C@@H]2O[C@@]3(C)CC[C@H]4[C@H](C)CC[C@@H]1[C@@]24OO3 [Artemisone]
- levels of labile heme in MDS-L cells (MDS-L cells [5]): efficiently reduced
- number of BFU-E, CFU-GM and CFU-GEMM type colonies (MDS-L cells [2]): decreasing
- terminal differentiation of MDS-L cells to CFU-Es (MDS-L cells [2]): efficaciously induced
- loss of CD71 (MDS-L cells [3]): efficaciously promoted
- potential to induce differentiation of MDS-L cells on addition of exogenous heme (hemin) (MDS-L cells [1]; 96-hour treatment with artemisone and hemin, FIG. 4C): suppressed
- induction in apoptosis (MDS-L cells [4]): no significant induction

Molecule: C[C@@H]1CC[C@H]2[C@@H](C)C(=O)O[C@@H]3O[C@@]4(C)CC[C@@H]1[C@]32O4 [2-deoxy-artemisinin]
- activity in differentiation assays (MDS-L cells [1]): inactive

- Maximal MDS-LGlyA fold induction (MDS-L cells [1]): 7.02 fold
- EC50 (MDS-L cells [1]): 1740 nM
Molecule: CC(C)(N)CNC(=O)C[C@H]1CC[C@]2(CC1)OO[C@]1(O2)[C@@H]2C[C@H]3C[C@@H](C2)C[C@@H]1C3 [Arterolane (OZ-277), Arterolane]

- Maximal MDS-LGlyA fold induction (MDS-L cells [1]): 7.26 fold
- EC50 (MDS-L cells [1]): 30 nM
Molecule: C[C@H]1[C@@H](OCc2ccc(C(=O)O)cc2)O[C@@H]2O[C@@]3(C)CC[C@H]4[C@H](C)CC[C@@H]1[C@@]24OO3 [Artelinic acid (artelinate), Artelinic acid]

- Maximal MDS-LGlyA fold induction (MDS-L cells [1]): 7.09 fold
- EC50 (MDS-L cells [1]): 610 nM
Molecule: C[C@H]1[C@@H](O)O[C@@H]2O[C@@]3(C)CC[C@H]4[C@H](C)CC[C@@H]1[C@@]24OO3 [Dihydroarte misin, dihydroartemisinin]

- Maximal MDS-LGlyA fold induction (MDS-L cells [1]): 7.51 fold
- EC50 (MDS-L cells [1]): 850 nM
Molecule: C[C@H]1[C@H](OC(=O)CCC(=O)O)O[C@@H]2O[C@@]3(C)CC[C@H]4[C@H](C)CC[C@@H]1[C@@]24OO3 (stereo in doubt) [Artesunate]

Molecule: CCCCCCCCCCCCCC(=O)O[C@@H]1[C@@H](C)[C@@]2(O)[C@@H](C=C(CO)C[C@]3(O)C(=O)C(C)=C[C@@H]23)[C@@H]2C(C)(C)[C@]12OC(C)=O [PMA, phorbol 12-myristate 13-acetate]
- inducing differentiation to more terminal blood lineages (GlyA immunopositivity) (MDS-L cells [1]; MDS-L cells): efficacious

Molecule: N-methylprotoporphyrin [NMPP]
- levels of labile heme in MDS-L cells (MDS-L cells [5]): efficiently reduced
- GlyA positivity in MDS-L cells (MDS-L cells [1]; treatment for 96 hours, FIG. 4A): increase

Molecule: Cc1c(-c2ccc(-c3ccccc3F)cc2)nc2ccc(F)cc2c1C(=O)O [Brequinar]
- inducing differentiation to more terminal blood lineages (GlyA immunopositivity) (MDS-L cells [1]; MDS-L cells): efficacious
